Source: publication PMC6749450, “Probing the Effects of Pyrimidine Functional Group Switches on Acyclic Fleximer Analogues for Antiviral Activity” (Molecules, 2019)

Key:
Ebola virus (EBOV) = assay: microbe, parasite or virus in culture; type: cell-based, EBOV-Makona; conditions: for EC50: Zaire ebolavirus, Huh-7, 72 h, read-out: EC50: effective concentration showing 50% inhibition of virus-expressed ZsGreen fluorescence
coronaviruses = conditions: cited from earlier work
filoviruses = conditions: cited from earlier work
flaviviruses = conditions: ref unpublished results; cited from earlier work

SMILES | EC50 (Ebola virus (EBOV)) | other results
COc1nc(N)ncc1-c1cn(COCCOC(C)=O)cn1 [1-Ac] | > 100 µM | activity against EBOV (in words) (Ebola virus (EBOV)): not active against EBOV
CCC(=O)OCCOCn1cnc(-c2cnc(N)nc2OC)c1 [1-EtAc, 2-((4-(2-Amino-4-methoxypyrimidin-5-yl)-1H-imidazol-1-yl)methoxy)ethyl propionate] | 62.2 ± 19 µM | –
COc1nc(N)ncc1-c1cn(COCCOC(=O)C(C)C)cn1 [1-^iPrAc, 2-((4-(2-Amino-4-methoxypyrimidin-5-yl)-1H-imidazol-1-yl)methoxy)ethyl isobutyrate] | > 100 µM | –
COc1nc(N)ncc1-c1cn(COCCOC(=O)C(C)(C)C)cn1 [1-^tBuAc, 2-((4-(2-Amino-4-methoxypyrimidin-5-yl)-1H-imidazol-1-yl)methoxy)ethyl pivalate] | 7.21 ± 1.85 µM | –
COc1ncc(-c2cn(COCCOC(C)=O)cn2)c(OC)n1 [2-Ac] | 16.3 ± 11.5 µM | –
CCC(=O)OCCOCn1cnc(-c2cnc(OC)nc2OC)c1 [2-EtAc, 2-((4-(2,4-Dimethoxypyrimidin-5-yl)-1H-imidazol-1-yl)methoxy)ethyl propionate] | > 100 µM | –
COc1ncc(-c2cn(COCCOC(=O)C(C)C)cn2)c(OC)n1 [2-^iPrAc, 2-((4-(2,4-Dimethoxypyrimidin-5-yl)-1H-imidazol-1-yl)methoxy)ethyl isobutyrate] | 32 ± 9.12 µM | –
COc1ncc(-c2cn(COCCOC(=O)C(C)(C)C)cn2)c(OC)n1 [2-^tBuAc, 2-((4-(2,4-Dimethoxypyrimidin-5-yl)-1H-imidazol-1-yl)methoxy)ethyl pivalate] | 81.3 ± 10.2 µM | –
COc1ncncc1-c1cn(COCCOC(C)=O)cn1 [3-Ac, 2-((4-(4-Methoxypyrimidin-5-yl)-1H-imidazol-1-yl)methoxy)ethyl acetate] | 35.4 ± 20.4 µM | –
CCC(=O)OCCOCn1cnc(-c2cncnc2OC)c1 [3-EtAc, 2-((4-(4-Methoxypyrimidin-5-yl)-1H-imidazol-1-yl)methoxy)ethyl propionate] | 51.9 ± 19.6 µM | –
COc1ncncc1-c1cn(COCCOC(=O)C(C)C)cn1 [3-^iPrAc, 2-((4-(4-Methoxypyrimidin-5-yl)-1H-imidazol-1-yl)methoxy)ethyl isobutyrate] | 38.3 ± 28.2 µM | –
COc1ncncc1-c1cn(COCCOC(=O)C(C)(C)C)cn1 [3-^tBuAc, 2-((4-(4-Methoxypyrimidin-5-yl)-1H-imidazol-1-yl)methoxy)ethyl pivalate] | 51.4 ± 10 µM | –
CC(=O)OCCOCn1cnc(-c2cnc(N)nc2)c1 [4-Ac, 2-((4-(2-Aminopyrimidin-5-yl)-1H-imidazol-1-yl)methoxy)ethyl acetate] | 52.9 ± 28.2 µM | –
CCC(=O)OCCOCn1cnc(-c2cnc(N)nc2)c1 [4-EtAc, 2-((4-(2-Aminopyrimidin-5-yl)-1H-imidazol-1-yl)methoxy)ethyl propionate] | > 100 µM | –
CC(C)C(=O)OCCOCn1cnc(-c2cnc(N)nc2)c1 [4-^iPrAc, 2-((4-(2-Aminopyrimidin-5-yl)-1H-imidazol-1-yl)methoxy)ethyl isobutyrate] | 54 ± 23.7 µM | –
CC(C)(C)C(=O)OCCOCn1cnc(-c2cnc(N)nc2)c1 [4-^tBuAc, 2-((4-(2-Aminopyrimidin-5-yl)-1H-imidazol-1-yl)methoxy)ethyl pivalate] | 34.4 ± 20 µM | –
CC(=O)OCCOCn1cnc(-c2cncnc2N)c1 [5-Ac, 2-((4-(4-Aminopyrimidin-5-yl)-1H-imidazol-1-yl)methoxy)ethyl acetate] | > 100 µM | –
CCC(=O)OCCOCn1cnc(-c2cncnc2N)c1 [5-EtAc, 2-((4-(4-Aminopyrimidin-5-yl)-1H-imidazol-1-yl)methoxy)ethyl propionate] | > 100 µM | –
CC(C)C(=O)OCCOCn1cnc(-c2cncnc2N)c1 [5-^iPrAc, 2-((4-(4-Aminopyrimidin-5-yl)-1H-imidazol-1-yl)methoxy)ethyl isobutyrate] | > 100 µM | –
CC(C)(C)C(=O)OCCOCn1cnc(-c2cncnc2N)c1 [5-^tBuAc, 2-((4-(4-Aminopyrimidin-5-yl)-1H-imidazol-1-yl)methoxy)ethyl pivalate] | 72.3 ± 18.7 µM | –
COc1nc(N)ncc1-c1cn(COCCO)cn1 [compound 1] | 1.49 ± 0.98 µM | antiviral activity against coronaviruses (coronaviruses): low micromolar activity; antiviral activity against filoviruses (filoviruses): low micromolar activity; antiviral activity against flaviviruses (flaviviruses): low micromolar activity
COc1ncc(-c2cn(COCCO)cn2)c(OC)n1 [compound 2] | 23.4 ± 20.3 µM | –
COc1ncncc1-c1cn(COCCO)cn1 [compound 3, 2-((4-(4-Methoxypyrimidin-5-yl)-1H-imidazol-1-yl)methoxy)ethan-1-ol] | 78.9 ± 17.1 µM | –
Nc1ncc(-c2cn(COCCO)cn2)cn1 [compound 4, 2-((4-(2-Aminopyrimidin-5-yl)-1H-imidazol-1-yl)methoxy)ethan-1-ol] | > 100 µM | activity against EBOV (in words) (Ebola virus (EBOV)): did not display any activity against EBOV
Nc1ncncc1-c1cn(COCCO)cn1 [compound 5, 2-((4-(4-Aminopyrimidin-5-yl)-1H-imidazol-1-yl)methoxy)ethan-1-ol] | > 100 µM | activity against EBOV (in words) (Ebola virus (EBOV)): did not display any activity against EBOV
